Patent US9271978B2 (Zenith Epigenetics Corp., priority 2012, dated 2016)

Assays:
[1] = molecular target: T1, second bromodomain of Brd2 (BRD2(2)) (Homo sapiens, UniProt P25440); test: Inhibition of tetra-acetylated histone H4 binding to Brd2 bromodomain 2 (TR-FRET); parameters: key: Active: Compounds with an IC50 value less than 30 μM were deemed to be active.; Not Active: Compounds with an IC50 value less than 30 μM were deemed to be active; settings: tetra-acetylated histone H4 peptide, active = IC50 <30 μM
T1 construct: made in house; host or cells: E. coli BL21 (DE3)
Method in brief: (§1)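 N-terminally His-tagged bromodomains (200 nM), expressed in E. coli, were incubated with biotinylated tetra-acetylated histone H4 peptide (25-50 nM), Eu-cryptate streptavidin and XL665 anti-His antibody in HEPES pH 7.4 buffer with KF, 0.2% DMSO, 2 h at room temperature. Inhibition read as decreased 665/620 nm TR-FRET; IC50 from dose-response curves.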

[2] = molecular target: T2, Brd4 bromodomain 1 (BRD4(1)) (Homo sapiens, UniProt O60885); test: Inhibition of tetra-acetylated histone H4 binding to Brd4 bromodomain 1 (TR-FRET); parameters: key: Active: Compounds with an IC50 value less than 30 μM were deemed to be active.; Not Active: Compounds with an IC50 value less than 30 μM were deemed to be active; settings: tetra-acetylated histone H4 peptide, active = IC50 <30 μM
T2 construct: Illustrative results with the first bromodomain of Brd4; made in house; host or cells: E. coli BL21 (DE3)
Method in brief: as §1

c-myc = test: Inhibition of c-myc expression in MV4-11 cells (mRNA, real-time PCR); type: cell-based; parameters: key: Active: Compounds with an IC50 value less than 30 μM were deemed to be active.; Not Active: Compounds with an IC50 value less than 30 μM were deemed to be active; settings: Human AML MV4-11 cells, 3 h incubation
Method in brief: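 MV4-11 cells (2.5×10^4) treated with compound or 0.1% DMSO for 3 h at 37 °C. c-myc mRNA measured by RT real-time PCR duplexed with cyclophilin. IC50 from dose–response curve.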

hIL-6 mRNA = test: Inhibition of hIL-6 mRNA transcription in U937 cells; type: cell-based, human; parameters: key: Active: Compounds with an IC50 value less than 30 μM were deemed to be active.; Not Active: Compounds with an IC50 value less than 30 μM were deemed to be active; settings: LPS stimulation, active = IC50 <30 μM
Method in brief: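 U937 cells differentiated 3 days with 60 ng/mL PMA, pretreated 1 h with compound, then stimulated with 1 ug/mL E. coli LPS for 3 h at 37° C. hIL-6 mRNA quantified by one-step qRT-PCR, Ct normalized to internal control, expressed as fold induction relative to control.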

ApoA-I mRNA = test: Up-regulation of hApoA-1 mRNA transcription in Huh7 cells; type: cell-based, human; parameters: key: Active: Compounds with an EC170 value less than 30 μM were deemed to be active; settings: 48 h treatment, ApoA-I mRNA by real-time PCR, Active = EC170 less than 30 μM
Method in brief: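 Huh7 cells treated with compound for 48 h. ApoA-I mRNA was then quantified in captured mRNA by one-step real-time RT-PCR. Fold induction calculated from Ct values relative to the matching DMSO control; EC170 is the concentration for 170% of control expression.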

[3] = test system: human AML MV-4-11 (CRL-9591) cells; test: Inhibition of cell proliferation in MV4-11 cells; type: cell-based; parameters: key: Active: Compounds with an IC50 value less than 30 μM were deemed to be active.; Not Active: Compounds with an IC50 value less than 30 μM were deemed to be active; settings: human AML MV-4-11 cells, 72 h; active = IC50 <30 μM
Method in brief: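 Exponentially growing MV-4-11 cells (5×10^4/well) were treated immediately with two-fold dilutions of compound from 30 μM to 0.2 μM, in triplicate, for 72 h at 37° C, 5% CO2. Viability was measured by MTS absorbance at 490 nm after 3–4 h. Proliferation relative to DMSO after blank correction gave IC50.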

hIL-17 mRNA = test: Inhibition of hIL-17 mRNA transcription in human peripheral blood mononuclear cells; type: cell-based; parameters: key: Active: Compounds with an IC50 value less than 30 μM were deemed to be active.; Not Active: Compounds with an IC50 value less than 30 μM were deemed to be active; settings: OKT3 antibody stimulation
Description: In this example, hIL-17 mRNA in human peripheral blood mononuclear cells was quantitated to measure the transcriptional inhibition of hIL-17 when treated with a compound of the invention.
Human peripheral blood mononuclear cells were plated (2.0×10^5 cells per well) in a 96-well plate in 45 μL OpTimizer T Cell expansion media containing 20 ng/ml IL-2 and penicillin/streptomycin. The cells were treated with the test compound (45 μL. at 2× concentration), and then the cells were incubated at 37° C. for 1 h before addition of 10× stock OKT3 antibody at 10 ug/ml in media. Cells were incubated at 37° C. for 3 h before the cells were harvested. At time of harvest, cells were centrifuged (800 rpm, 5 min). Spent media was removed and cell lysis solution (70 μL) was added the cells in each well and incubated for 5-10 min at room temperature, to allow for complete cell lysis and detachment. mRNA was then prepared using the “mRNA Catcher PLUS plate” (Invitrogen), according to the protocol supplied. After the last wash, as much wash buffer as possible was aspirated without allowing the wells to dry. Elution buffer (E3, 70 μL) was then added to each well. mRNA was then eluted by incubating the mRNA Catcher PLUS plate with Elution Buffer for 5 min at 68° C. and then immediately placing the plate on ice.
The eluted mRNA isolated was then used in a one-step quantitative real-time PCR reaction, using components of the Ultra Sense Kit together with Applied Biosystems primer-probe mixes. Real-time PCR data was analyzed, normalizing the Ct values for hIL-17 to an internal control, prior to determining the fold induction of each unknown sample, relative to the control.

T1 sequence (P25440 344-453 limits assumed): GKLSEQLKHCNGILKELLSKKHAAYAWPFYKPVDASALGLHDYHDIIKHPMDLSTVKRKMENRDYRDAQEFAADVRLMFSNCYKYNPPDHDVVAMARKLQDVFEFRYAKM

SMILES	FRET activity (IC50 <30 μM) BRD2(2) [1]	FRET activity (IC50 <30 μM) BRD4(1) [2]	c-myc activity (IC50 <30 μM) (c-myc)	IL-6 activity (IC50 <30 μM) (hIL-6 mRNA)	ApoA-1 activity (EC170 <30 μM) (ApoA-I mRNA)	Cell Proliferation activity (IC50 <30 μM) [3]	melting point	IL-17 activity (IC50 < 30 μM) (hIL-17 mRNA)
COc1ccccc1Cn1cc(-c2c(C)noc2C)ccc1=O [Example 162, 5-(3,5-Dimethylisoxazol-4-yl)-1-(2-methoxybenzyl)pyridin-2(1H)-one]	Active	Active	Active	Active	Active	Active	–	–
COc1cc(-c2nn(Cc3ccccc3)c(=O)c3ccccc23)ccc1O [Example 165, 2-Benzyl-4-(4-hydroxy-3-methoxyphenyl)-2H-phthalazin-1-one]	Active	Active	Active	Active	–	Active	197 to 200 °C	–
COc1ccc(-c2cn(Cc3ccccc3)c(=O)c3ccccc23)cc1OC [Example 166, 2-Benzyl-4-(3,4-dimethoxyphenyl)isoquinolin-1(2H)-one]	Not Active	Active	–	–	–	–	174 to 176 °C	–
Cc1noc(C)c1-c1cn(Cc2ccccc2)c(=O)c2ccccc12 [Example 167, 2-Benzyl-4-(3,5-dimethylisoxazol-4-yl)isoquinolin-1(2H)-one]	Active	Active	Not Active	Active	–	Active	139 to 141 °C	–
COc1cc(-c2cn(Cc3ccccc3)c(=O)c3ccccc23)cc(OC)c1OC [Example 168, 2-Benzyl-4-(3,4,5-trimethoxyphenyl)isoquinolin-1(2H)-one]	Active	Not Active	Not Active	Not Active	–	Active	166 to 168 °C	–
COc1cc(-c2cn(Cc3ccccc3)c(=O)c3ccccc23)ccc1O [Example 169, 2-Benzyl-4-(4-hydroxy-3-methoxyphenyl)isoquinolin-1(2H)-one]	Active	Active	Active	Active	–	Active	165 to 167 °C	–
COc1cc(Nc2nn(Cc3ccccc3)c(=O)c3ccccc23)cc(OC)c1OC [Example 171, 2-Benzyl-4-(3,4,5-trimethoxyphenylamino)-2H-phthalazin-1-one]	Active	Active	Active	Active	–	Active	206 to 207 °C	–
COc1cc(Nc2cn(Cc3ccccc3)c(=O)c3ccccc23)cc(OC)c1OC [Example 172, 2-Benzyl-4-((3,4,5-trimethoxyphenyl)amino)isoquinolin-1(2H)-one]	Active	Active	Not Active	Active	–	Active	162 to 164 °C	–
Cc1noc(C)c1-c1cn(Cc2ccccc2)c(=O)c2cccnc12 [Example 173, 6-Benzyl-8-(3,5-dimethylisoxazol-4-yl)-1,6-naphthyridin-5(6H)-one]	Active	Active	–	–	–	–	192 to 195 °C	–
Cc1noc(C)c1-c1cn(Cc2ccccc2)c(=O)c2ncccc12 [Example 174, 7-Benzyl-5-(3,5-dimethylisoxazol-4-yl)-1,7-naphthyridin-8(7H)-one]	Active	Active	–	–	–	–	168 to 170 °C	–
Cc1noc(C)c1-c1cn(Cc2ccccc2)c(=O)c2cnccc12 [Example 175, 2-Benzyl-4-(3,5-dimethylisoxazol-4-yl)-2,7-naphthyridin-1(2H)-one]	Active	Active	–	–	–	–	174 to 177 °C	–
Cc1noc(C)c1-c1cn(Cc2ccccc2)c(=O)c2ccncc12 [Example 176, 2-Benzyl-4-(3,5-dimethylisoxazol-4-yl)-2,6-naphthyridin-1(2H)-one]	Active	Active	–	–	–	–	159 to 161 °C	–
Cc1noc(C)c1-c1cc(N)c(=O)n(Cc2cccc3[nH]ccc23)c1 [Example 247, 1-((1H-Indol-4-yl)methyl)-3-amino-5-(3,5-dimethylisoxazol-4-yl)pyridin-2(1H)-one]	–	Active	Active	Active	–	Active	–	Active
Cc1noc(C)c1-c1cc(N)c(=O)n(Cc2cccc3[nH]cc(C)c23)c1 [Example 271, 3-Amino-5-(3,5-dimethylisoxazol-4-yl)-1-((3-methyl-1H-indol-4-yl)methyl)pyridin-2(1H)-one]	–	Active	Active	Active	–	Active	–	Active
